From US20240317735A1, “HYDROISOQUINOLINE OR HYDRONAPHTHYRIDINE COMPOUNDS FOR THE TREATMENT OF AUTOIMMUNE DISEASE” (Hoffmann-La Roche Inc., priority 2020, published 2024)

Target: T1, human TLR7 (Homo sapiens, UniProt Q9NYK1)
T1 construct: host or cells: HEK293 (HEK-Blue hTLR7)
T1 sequence (Q9NYK1 27-1049): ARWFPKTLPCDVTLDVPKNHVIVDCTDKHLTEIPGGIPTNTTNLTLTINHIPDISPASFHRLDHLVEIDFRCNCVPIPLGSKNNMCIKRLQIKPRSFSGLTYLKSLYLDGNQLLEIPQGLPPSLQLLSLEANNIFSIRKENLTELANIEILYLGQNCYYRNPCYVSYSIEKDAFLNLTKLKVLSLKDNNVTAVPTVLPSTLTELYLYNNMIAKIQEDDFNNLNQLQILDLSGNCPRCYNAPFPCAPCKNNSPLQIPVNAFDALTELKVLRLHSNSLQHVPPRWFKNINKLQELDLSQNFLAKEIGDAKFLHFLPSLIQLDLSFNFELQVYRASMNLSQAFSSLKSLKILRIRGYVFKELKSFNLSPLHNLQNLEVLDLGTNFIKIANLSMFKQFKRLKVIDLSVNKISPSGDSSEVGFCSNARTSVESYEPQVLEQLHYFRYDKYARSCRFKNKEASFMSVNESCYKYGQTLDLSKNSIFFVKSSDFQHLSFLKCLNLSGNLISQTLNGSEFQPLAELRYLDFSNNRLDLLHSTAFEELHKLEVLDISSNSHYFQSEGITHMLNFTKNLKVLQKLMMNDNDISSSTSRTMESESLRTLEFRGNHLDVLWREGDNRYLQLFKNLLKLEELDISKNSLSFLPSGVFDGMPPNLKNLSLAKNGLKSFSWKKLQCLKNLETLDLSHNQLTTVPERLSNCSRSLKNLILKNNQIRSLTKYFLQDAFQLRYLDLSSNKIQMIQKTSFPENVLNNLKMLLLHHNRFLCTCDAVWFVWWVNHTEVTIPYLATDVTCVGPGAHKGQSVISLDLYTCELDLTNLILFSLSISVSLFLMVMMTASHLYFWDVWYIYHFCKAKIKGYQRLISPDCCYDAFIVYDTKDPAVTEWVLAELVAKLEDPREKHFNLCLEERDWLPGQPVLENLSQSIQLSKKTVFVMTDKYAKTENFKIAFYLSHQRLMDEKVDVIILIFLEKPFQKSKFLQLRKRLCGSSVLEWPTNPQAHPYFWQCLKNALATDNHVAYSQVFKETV
Assay: HEK293-Blue-hTLR-7 cells assay (SEAP reporter, R848 stimulation)
Type: cell-based
Conditions: HEK293-Blue-hTLR7 cells, R848, 20 hrs; read-out: HEK/hTLR7 IC50
Protocol: The following tests were carried out in order to determine the activity of the compounds of formula (I) and (Ia) in HEK293-Blue-hTLR-7/8/9 cells assay.
A stable HEK293-Blue-hTLR-7 cell line was purchased from InvivoGen (Cat. #: hkb-htlr7, San Diego, California, USA). These cells were originally designed for studying the stimulation of human TLR7 by monitoring the activation of NF-κB. A SEAP (secreted embryonic alkaline phosphatase) reporter gene was placed under the control of the IFN-β minimal promoter fused to five NF-κB and AP-1-binding sites. The SEAP was induced by activating NF-κB and AP-1 via stimulating HEK-Blue hTLR7 cells with TLR7 ligands. Therefore the reporter expression w % as declined by TLR7 antagonist under the stimulation of a ligand, such as R848 (Resiquimod), for incubation of 20 hrs. The cell culture supernatant SEAP reporter activity was determined using QUANTI-Blue™ kit (Cat. #: rep-qb1, Invivogen, San Diego, Ca, USA) at a wavelength of 640 nm, a detection medium that turns purple or blue in the presence of alkaline phosphatase.
HEK293-Blue-hTLR7 cells were incubated at a density of 250,000˜450,000 cells/mL in a volume of 170 μL in a 96-well plate in Dulbecco's Modified Eagle's medium (DMEM) containing 4.5 g/L glucose, 50 U/mL penicillin, […], […] Normocin, 2 mM L-glutamine, 10% (v/v) heat-inactivated fetal bovine serum with addition of 20 μL test compound in a serial dilution in the presence of final DMSO at 1% and 10 μL of 20 uM R848 in above DMEM, perform incubation under 37° C. in a C02 incubator for 20 hrs. Then 20 μL of the supernatant from each well was incubated with 180 μL Quanti-blue substrate solution at 37° C. for 2 hrs and the absorbance was read at 620˜655 nm using a spectrophotometer. The signaling pathway that TLR7 activation leads to downstream NF-κB activation has been widely accepted, and therefore similar reporter assay was modified for evaluating TLR7 antagonist.

IC50	SMILES
8 nM	C[C@H]1CN(c2ccnc3c2cnn3C)Cc2ccc(OCCN3CCNCC3)cc21 [Example 40, (4R)-4-methyl-2-(1-methylpyrazolo[3,4-b]pyridin-4-yl)-6-(2-piperazin-1-ylethoxy)-3,4-dihydro-1H-isoquinoline]
45 nM	CO[C@@H]1CN(c2cc3c(cn2)CN(c2cc(C)nc4c2cnn4C)C[C@@H]3C)C[C@H]1N [Example 78, (3R,4R)-4-methoxy-1-[(5R)-7-(1,6-dimethylpyrazolo[3,4-b]pyridin-4-yl)-5-methyl-6,8-dihydro-5H-2,7-naphthyridin-3-yl]pyrrolidin-3-amine]
8 nM	C[C@H]1CN(c2ccnc3c2cnn3C)Cc2ccc(OC[C@H]3CNCCN3C)cc21 [Example 43, (4R)-4-methyl-2-(1-methylpyrazolo[3,4-b]pyridin-4-yl)-6-[[(2R)-1-methylpiperazin-2-yl]methoxy]-3,4-dihydro-1H-isoquinoline]
2 nM	CO[C@@H]1CN(C2CCN(c3ccc4c(c3)[C@@H](C)CN(c3ccnc5c3cnn5C)C4)CC2)C[C@H]1N [Example 11, (3R,4R)-4-methoxy-1-[1-[(4R)-4-methyl-2-(1-methylpyrazolo[3,4-b]pyridin-4-yl)-3,4-dihydro-1H-isoquinolin-6-yl]-4-piperidyl]pyrrolidin-3-amine]
3 nM	C[C@H]1CN(c2ccnc3c2cnn3C)Cc2ccc(N3CCN(CCN(C)C)CC3)cc21 [Example 38, N,N-dimethyl-2-[4-[(4R)-4-methyl-2-(1-methylpyrazolo[3,4-b]pyridin-4-yl)-3,4-dihydro-1H-isoquinolin-6-yl]piperazin-1-yl]ethanamine]
17 nM	Cc1cc(N2Cc3ccc(N4CC5(CNCCO5)C4)nc3[C@@H](C)C2)c2cnn(C)c2n1 [Example 68, 2-[(8S)-6-(1,6-dimethylpyrazolo[3,4-b]pyridin-4-yl)-8-methyl-7,8-dihydro-5H-1,6-naphthyridin-2-yl]-5-oxa-2,8-diazaspiro[3.5]nonane]
9 nM	C[C@H]1CN(c2ccnc3c2cnn3C)Cc2ccc(N3CCN[C@H](CO)C3)cc21 [Example 51, [(2S)-4-[(4R)-4-methyl-2-(1-methylpyrazolo[3,4-b]pyridin-4-yl)-3,4-dihydro-1H-isoquinolin-6-yl]piperazin-2-yl]methanol]
9 nM	C[C@H]1CN(c2ccnc3c2cnn3C)Cc2ccc(N3CCC(N4CC[C@@H](N)[C@H](O)C4)CC3)cc21 [Example 29, trans-4-amino-1-[1-[(4R)-4-methyl-2-(1-methylpyrazolo[3,4-b]pyridin-4-yl)-3,4-dihydro-1H-isoquinolin-6-yl]-4-piperidyl]piperidin-3-ol]
6 nM	CO[C@H]1CN(c2ccc3c(n2)[C@@H](C)CN(c2cc(C)nc4c2cnn4C)C3)CC[C@@H]1N [Example 65, (3S,4S)-3-methoxy-1-[(8S)-6-(1,6-dimethylpyrazolo[3,4-b]pyridin-4-yl)-8-methyl-7,8-dihydro-5H-1,6-naphthyridin-2-yl]piperidin-4-amine]
13 nM	Cc1cc(N2Cc3ccc(N4CC5(CNCCO5)C4)cc3[C@@H](C)C2)c2cnn(C)c2n1 [Example 48, 2-[(4R)-2-(1,6-dimethylpyrazolo[3,4-b]pyridin-4-yl)-4-methyl-3,4-dihydro-1H-isoquinolin-6-yl]-5-oxa-2,8-diazaspiro[3.5]nonane]
14 nM	C[C@H]1CN(c2ccnc3c2cnn3C)Cc2ccc(N3CCN(Cc4cn(C)cn4)CC3)cc21 [Example 37, (4R)-4-methyl-6-[4-[(1-methylimidazol-4-yl)methyl]piperazin-1-yl]-2-(1-methylpyrazolo[3,4-b]pyridin-4-yl)-3,4-dihydro-1H-isoquinoline]
37 nM	Cc1cc(N2Cc3ccc(OC[C@H]4CNCCN4)cc3[C@@H](C)C2)c2cnn(C)c2n1 [Example 30, (4R)-2-(1,6-dimethylpyrazolo[3,4-b]pyridin-4-yl)-4-methyl-6-[[(2R)-piperazin-2-yl]methoxy]-3,4-dihydro-1H-isoquinoline]
9 nM	C[C@H]1CN(c2ccnc3c2cnn3C)Cc2ccc(N3C[C@H]4CCNC[C@H]4C3=O)cc21 (single isomer, unassigned) [Example 56]
4 nM	CC1CN(c2ccnc3c2cnn3C)Cc2ccc(N3CCC4(CCNCC4)CC3)cc21 (centres unmarked) [Example 4, 3-[4-methyl-2-(1-methylpyrazolo[3,4-b]pyridin-4-yl)-3,4-dihydro-1H-isoquinolin-6-yl]-3,9-diazaspiro[5.5]undecane]
21 nM	Cc1cc(N2Cc3ccc(N4CCNCC4)nc3[C@H](C)C2)c2cnn(C)c2n1 [Example 72, (8R)-6-(1,6-dimethylpyrazolo[3,4-b]pyridin-4-yl)-8-methyl-2-piperazin-1-yl-7,8-dihydro-5H-1,6-naphthyridine]
3 nM	C[C@H]1CN(c2ccnc3c2cnn3C)Cc2ccc(O[C@@H]3C[C@H]4CNCCN4C3)cc21 [Example 42, (4R)-4-methyl-2-(1-methylpyrazolo[3,4-b]pyridin-4-yl)-6-[[(7R,8aS)-1,2,3,4,6,7,8,8a-octahydropyrrolo[1,2-a]pyrazin-7-yl]oxy]-3,4-dihydro-1H-isoquinoline]
26 nM	Cn1ncc2c(N3Cc4ccc(N5CCC6(CCNCC6)CC5)cc4C(C)(C)C3)ccnc21 [Example 6, 3-[4,4-dimethyl-2-(1-methylpyrazolo[3,4-b]pyridin-4-yl)-1,3-dihydroisoquinolin-6-yl]-3,9-diazaspiro[5.5]undecane]
3 nM	Cc1cc(N2Cc3ccc(N4CCC5(CCNCC5)CC4)cc3C(C)C2)c2cnn(C)c2n1 (centres unmarked) [Example 5, 3-[2-(1,6-dimethylpyrazolo[3,4-b]pyridin-4-yl)-4-methyl-3,4-dihydro-1H-isoquinolin-6-yl]-3,9-diazaspiro[5.5]undecane]
4 nM	CC1CN(c2ccc3c(c2)[C@@H](C)CN(c2ccnc4c2cnn4C)C3)CCN1 (stereo partly drawn) [Example 15, (4R)-4-methyl-6-(3-methylpiperazin-1-yl)-2-(1-methylpyrazolo[3,4-b]pyridin-4-yl)-3,4-dihydro-1H-isoquinoline]
1 nM	C[C@H]1CN(c2ccnc3c2cnn3C)Cc2ccc(N3CCC(N4CCNCC4)CC3)cc21 [Example 10, (4R)-4-methyl-2-(1-methylpyrazolo[3,4-b]pyridin-4-yl)-6-(4-piperazin-1-yl-1-piperidyl)-3,4-dihydro-1H-isoquinoline]

SMILES	IC50
C[C@H]1CN(c2ccnc3c2cnn3C)Cc2ccc(N3CCNCC3)cc21 [Example 1, (4R)-4-methyl-2-(1-methylpyrazolo[3,4-b]pyridin-4-yl)-6-piperazin-1-yl-3,4-dihydro-1H-isoquinoline]	3 nM
CO[C@@H]1CN(c2ccc3c(n2)[C@@H](C)CN(c2cc(C)nc4c2cnn4C)C3)C[C@H]1N [Example 63, (3R,4R)-4-methoxy-1-[(8S)-6-(1,6-dimethylpyrazolo[3,4-b]pyridin-4-yl)-8-methyl-7,8-dihydro-5H-1,6-naphthyridin-2-yl]pyrrolidin-3-amine]	5 nM
CO[C@@H]1CN(c2ccc3c(c2)[C@@H](C)CN(c2ccnc4c2cnn4C)C3)C[C@H]1N [Example 20, (3R,4R)-4-methoxy-1-[(4R)-4-methyl-2-(1-methylpyrazolo[3,4-b]pyridin-4-yl)-3,4-dihydro-1H-isoquinolin-6-yl]pyrrolidin-3-amine]	3 nM
